According to patent USRE33897E, “Synthetic polypeptides and antibodies related to Epstein-Barr virus nuclear antigen” (Scripps Clinic and Research Foundation, priority 1989, dated 1992):
Entries after “also recorded” stand apart in the source; their conditions may differ. Residues, ends and D or L forms follow the SMILES beside them.

Columns and labels:
[1] = Circular dichroism spectroscopy of polypeptides in phosphate buffered saline; format: physicochemical; settings: 1 mg/ml
Method: The conformational properties of the polypeptides were investigated to elucidate any secondary structure that might be necessary for polypeptide immunoreaction with human anti-EBNA antibodies. The polypeptides were dissolved at a concentration of 1 mg/ml in phosphate-buffered saline (PBS). Spectra were taken using 1 ml samples in a Cary 61 spectropolarimeter (Cary Instruments, Applied Physics Corp., Monrovia, Calif.) interfaced and automated with a Digital Equipment Corporation 11/02 computer (Digital Equipment Corporation, Maynard, Mass.).

[2] = tested on: EBNA; assay: Immunoblotting of whole cell extracts with rabbit anti-polypeptide antisera; format: binding, Epstein-Barr virus; settings: for Inhibition of recognition of EBNA by anti-P62 serum: anti-P62 serum 1:10 incubated with 40 ug/ml polypeptide for one hour
Method: Exemplary receptor molecules containing antibody combining sites of this invention raised in rabbits to the polypeptides shown in Table 1 were studied using the immunoblotting procedures of Towbin, et. al., Proc. Natl. Acad. Sci., U.S.A., 76:4350-4354 (1979) and Billings, et. al., Proc. Natl. Acad. Sci., U.S.A., 80:7104-7108 (1983). Further details are provided in the Materials and Methods section (II).
Extracts of EBNA producing and non-producing (control) cells were prepared to determine if receptor molecules of this invention were useful for diagnosing EBNA expression. Cells from cultures described hereinabove were washed in phosphate-buffered saline (PBS; 150 mM NaCl, 10 mM sodium phosphate, pH 7.4) containing 0.2 mM phenylmethylsulfonyl fluoride, swollen for 5 minutes in reticulocyte standard buffer (RSB; 10 mM NaCl, 10 mM Tris-HCl, pH 7.4, 1.5 mM MgCl2, 0.2 mM phenylmethylsulfonyl fluoride), and lysed by sonication in 3-5 volumes of RBS adjusted to 0.2-0.35 molar (M) NaCl. After 30 minutes on ice, the sonicate was centrifuged at 10,000×g for 15 minutes to remove cellular debris.
Cell extracts obtained above were assayed for EBNA using human sera known to contain anti-EBNA antibodies or exemplary receptor molecules of this invention. Tne extracts were either concentrated by precipitation with 2 volumes of ethanol at -20 degrees C. for about 18 hours, and were then dissolved in sample buffer [SB; 10% glycerol, 2% 2-mercaptoethanol, 1% sodium dodecyl sulfate (SDS), 0.002% bromphenol blue, 40 mM Tris-HCl (pH 7.4)] or diluted 1:6 in sample buffer for SDS-polyacrylamide gel electrophoresis (SDS-PAGE). 7.5% Polyacrylamide gels were cast and run according to the procedure of Laemmli, Nature, […] (1970), applying 50 to 200 micorgrams of total protein per lane. […]
Anti-peptide antibodies bound to EBNA protein were detected by reacting the blots with an indicating means. […]

[3] = tested on: anti-EBNA antibodies; assay: ELISA with polypeptide as solid phase antigen, detecting anti-polypeptide antibodies in sera; format: binding, human; settings: for Average titer of Progressive Systemic Schlerosis (PSS) patients to polypeptide compared with normals: high and low serum dilutions; for Reaction of VCA- sera with polypeptide: panel of 19 VCA- sera; for Reactivity of sera of EBV non-immune donors to polypeptide: panel of 27 EBV non-immune (VCA-) donors; for Number of 91 anti-EBNA positive (ACIF) sera positive against polypeptide: sera at 1:20 dilution; for Antibodies binding to polypeptide before and after EBV-induced infectious mononucleosis: sera of two subjects; for Reaction of sera of clinically normal VCA+ individuals with polypeptide: two serum dilutions
Method: A solution containing a substrate for the enzyme label such as hydrogen peroxide for peroxidase and a color-forming dye precursor such as o-phenylenediamine, or p-nitrophenyl phosphate for alkaline phosphatase is thereafter admixed with the solid phase.
(§1) Anti-peptide antibody binding and inhibition studies were carried out by an enzyme-linked immunosorbent assay (ELISA) as described below.
(§2) Briefly, microtiter wells (Costar, #3590, Cambridge, Mass.) were coated with individual polypeptides as antigens by adding 100 microliters (ul) of BBS [10 millimoler (mM) sodium borate (pH 8.3), 150 mM NaCl] containing polypeptide at a concentration of 10 micrograms per milliliter (ug/ml). Contact between the wells and antigen-containing solution was maintained for a predetermined time, typically 15 minutes, and at 20 degrees C., to form an antigen-coated solid phase. The solid and liquid phases were separated and the wells were washed three times with BBS.
Non-specific binding sites were blocked by admixing 200 microliters of 1% bovine serum albumin (BSA) in each well to form another solid-liquid phase admixture, and maintaining that solid-liquid phase admixture for 30 minutes, at 20 degrees C. The phases were separated and excess, unbound BSA was removed by washinq three times with BBS.
[…] Contact between the diluted sera and the antigen-coated solid phase was maintained for a predetermined time such as 1 hour, and at 20 degrees C., for an immunoreactant to form. The solid and liquid phases were separated, and the solid phase; i.e., antigen-coated, immunoreactant-containing wells, was then washed three times with BBS.
The antibodies in human sera that immunoreacted with an adsored polypeptide were detected using an indicating means comprising alkaline phosphatase-conjugated goat anti-human Ig antibody (Tago, Burlington, CA). The antibodies in rabbit sera that immunoreacted with an adsorbed polypeptide were detected using an indicating means comprising alkaline phosphatase-conjugated goat anti-rabbit Ig antibody (Kirkegard & Perry Laboratories, Inc., Gaithersburg, Md.). In either instance, 100 microliters of the indicating antibody diluted 1:300 in BBS were added per well to form a further solid-liquid phase composition. This solidliquid phase composition was maintained for a predetermined time, one hour, for the formation of a reaction product between the human antibodies bound to the solid phase and the indicating means, and at 20 degrees C.

[4] = tested on: rabbit anti-polypeptide antibody to polypeptide P62; assay: Competition ELISA: rabbit anti-polypeptide P62 antibody binding to solid phase P62; settings: antibody first incubated with competing polypeptide
Method: as §1, §2
Non-specific binding sites were blocked by admixing 200 microliters of 1% bovine serum albumin (BSA) in each well to form another solid-liquid phase admixture, and maintaining that solid-liquid phase admixture for 30 minutes, at 20 degrees C. […]
The antibodies in human sera that immunoreacted with an adsored polypeptide were detected using an indicating means comprising alkaline phosphatase-conjugated goat anti-human Ig antibody (Tago, Burlington, CA). The antibodies in rabbit sera that immunoreacted with an adsorbed polypeptide were detected using an indicating means comprising alkaline phosphatase-conjugated goat anti-rabbit Ig antibody (Kirkegard & Perry Laboratories, Inc., Gaithersburg, Md.). […]

[5] = serum MV post-mononucleosis, dilution 1:20
[6] = serum MV pre-mononucleosis, dilution 1:20
[7] = serum SB post-mononucleosis, dilution 1:20
[8] = serum SB pre-mononucleosis, dilution 1:20
[9] = serum VCA + Normal 1, dilution 1:20
[10] = serum VCA + Normal 2, dilution 1:20

Row | Compound | Conformation indicated by circular dichroism spectrum [1] | Inhibition of recognition of EBNA by anti-P60 serum ([2]; anti-P60 serum 1:50 incubated with 40 ug/ml polypeptide for one hour) | Inhibition of recognition of EBNA by anti-P62 serum [2] | OD405 × 10^3 obtained with patient antibodies to polypeptide, average ± one standard deviation ([3]; VCA- Normals (n = 27), dilution 1:20) | Average titer of Progressive Systemic Schlerosis (PSS) patients to polypeptide compared with normals [3] | Reaction of VCA- sera with polypeptide [3] | Reactivity of sera of EBV non-immune donors to polypeptide [3] | Number of 91 anti-EBNA positive (ACIF) sera positive against polypeptide [3] | Antibodies binding to polypeptide before and after EBV-induced infectious mononucleosis [3] | OD405 × 10^3 obtained with patient antibodies to polypeptide [3, 5] | OD405 × 10^3 obtained with patient antibodies to polypeptide [3, 6] | OD405 × 10^3 obtained with patient antibodies to polypeptide [3, 7] | OD405 × 10^3 obtained with patient antibodies to polypeptide [3, 8] | OD405 × 10^3 obtained with patient antibodies to polypeptide [3, 9] | OD405 × 10^3 obtained with patient antibodies to polypeptide [3, 10] | Reaction of sera of clinically normal VCA+ individuals with polypeptide [3] | Time course of anti-P62 antibodies after onset of infectious mononucleosis versus ACIF anti-EBNA titer ([3]; one-half of 8 students (e.g. patient 15)) | Time of detection of antibodies against polypeptide after onset of infectious mononucleosis ([3]; other half of 8 students (e.g. patients 14 and 2)) | Number of 91 EBNA positive sera immunoreacting with polypeptide ([3]; sera at 1:320 dilution) | Inhibition of binding of anti-polypeptide P62 to solid phase polypeptide P62 [4]
1 | C[C@H](NC(=O)CNC(=O)CNC(=O)[C@H](C)NC(=O)CNC(=O)[C@H](C)NC(=O)CNC(=O)CNC(=O)CN)C(=O)NCC(=O)N[C@@H](C)C(=O)NCC(=O)NCC(=O)NCC(=O)NCC(=O)N[C@@H](CCCNC(=N)N)C(=O)O [Polypeptide P60, H--Gly--Gly--Gly--Ala--Gly--Ala--Gly--Gly--Ala--Gly--Ala--Gly--Gly--Gly--Gly--Arg--OH] (H-GGGAGAGGAGAGGGGR-OH) | very similar spectra | innibited | inhibited | 45 ± 18 OD405 × 10^3 | relatively higher average titer | None of the VCA- sera were found to react positively | None of tne sera displayed significant reactivity | 91 | absent before infection, but appeared afterward | 162 OD405 × 10^3 | 72 OD405 × 10^3 | 115 OD405 × 10^3 | 51 OD405 × 10^3 | 154 OD405 × 10^3 | 145 OD405 × 10^3 | all of the VCA+ indiviuals were positive | – | – | – | –
2 | C[C@H](N)C(=O)NCC(=O)N[C@@H](C)C(=O)NCC(=O)NCC(=O)NCC(=O)N[C@@H](C)C(=O)NCC(=O)NCC(=O)N[C@@H](C)C(=O)NCC(=O)N[C@@H](C)C(=O)NCC(=O)NCC(=O)NCC(=O)N[C@@H](C)C(=O)NCC(=O)NCC(=O)N[C@@H](C)C(=O)NCC(=O)O [Polypeptide P62, H-Ala--Gly--Ala--Gly--Gly--Gly--Ala--Gly--Gly--Ala--Gly--Ala--Gly--Gly--Gly--Ala--Gly--Gly--Ala--Gly--OH] (H-AGAGGGAGGAGAGGGAGGAG-OH) | relatively stable secondary structure | – | inhibited | – | relatively higher average titer | None of the VCA- sera were found to react positively | None of tne sera displayed significant reactivity | 91 | absent before infection, but appeared afterward | 631 OD405 × 10^3 | 77 OD405 × 10^3 | 514 OD405 × 10^3 | 13 OD405 × 10^3 | 958 OD405 × 10^3 | 819 OD405 × 10^3 | all of the VCA+ indiviuals were positive | rose in parallel with the corresponding anti-EBNA titer | detected in the first month after the onset of symptoms | 83 | –
3 | CSCC[C@H](NC(=O)[C@@H]1CCCN1C(=O)[C@H](CCCNC(=N)N)NC(=O)[C@H](CCCCN)NC(=O)[C@H](CCC(=O)O)NC(=O)CNC(=O)[C@H](CCCNC(=N)N)NC(=O)CNC(=O)[C@H](CCCNC(=N)N)NC(=O)CNC(=O)[C@H](CCCNC(=N)N)NC(=O)CNC(=O)[C@H](CCCNC(=N)N)NC(=O)[C@H](C)NC(=O)[C@@H](N)CCCNC(=N)N)C(=O)O [Polypeptide P89, H--Arg--Ala--Arg--Gly--Arg--Gly--Arg--Gly--Arg--Gly--Glu--Lys--Arg--Pro--Met--OH] (H-RARGRGRGRGEKRPM-OH) | – | – | – | – | – | – | – | – | no antibodies were produced | 25 OD405 × 10^3 | 29 OD405 × 10^3 | 23 OD405 × 10^3 | 9 OD405 × 10^3 | 23 OD405 × 10^3 | 16 OD405 × 10^3 | – | – | – | – | did not significantly crossreact; also recorded: did not inhibit
